In publication PMC10607100, “Anticancer and Antiphytopathogenic Activity of Fluorinated Isatins and Their Water-Soluble Hydrazone Derivatives” (International Journal of Molecular Sciences, 2023):
Read-outs that look alike come from different tables or passages of the source.

Key:
Type in all cases: cell-based
Micrococcus luteus B-109 = experiment: Agar-well diffusion, bactericidal activity; settings: Micrococcus luteus
From the text: (§1) Plant pathogenic bacterial strains Micrococcus luteus B-109, Pectobacterium atrosepticum 1043, Pectobacterium carotovorum subsp. carotovorum MI, Pseudomonas fluorescens EL-2.1, and Xanthomonas campestris B-610 and the fungal strain Fusarium oxysporum IBPPM 543 were from the Collection of Rhizosphere Microorganisms, IBPPM RAS (WFCC no. 975, WDCM no. 1021) (CM IBPPM, http://collection.ibppm.ru). The pathogenic fungus Phytophthora cactorum VKM F-985, provided by the All-Russian Collection of Microorganisms (VKM) and deposited at the A.E. Favorsky Irkutsk Institute of Chemistry, SB RAS, was also used as a test organism. Bacteria M. luteus, P. carotovorum subsp. carotovorum, P. atrosepticum, and P. fluorescens were grown in a meat–peptone medium (BP), and X. campestris was grown in the medium with glucose, yeast extract, and calcium carbonate (GYCa). Solid media contained Bacto agar (18 g/L); pH was adjusted to 7.2–7.4. All bacterial cultures were grown at 28 °C. The mycelial cultures of F. oxysporum and P. cactorum were grown on a glucose–peptone–yeast (GPY) nutrient medium at 27 °C. For inoculum preparation, both fungal strains were initially grown on the agar GPY in Petri dishes and then transferred into the seed medium by punching out 5 mm of the agar plate culture with a self-designed cutter.
(§2) The antibacterial and antifungal activities of the compounds were explored using the agar-well diffusion method and the technique of mycelial radial growth inhibition. The method of diffusion in agar (measuring the diameter of growth inhibition zones) was used to determine the bactericidal activity. The 6-mm wells were made in agar medium (GYCa for Xanthomonas campestris or BP for other bacteria). Bacterial suspensions were distributed over the agar surface, and the tested compound’s solution (150 μL) was added to each well. The width of growth inhibition zones around the wells was determined after incubation for 36–40 h.

[1] = test system: Pectobacterium atrosepticum 1043; experiment: Agar-well diffusion, bactericidal activity; settings: Pectobacterium atrosepticum, 1043, 2 mM/L
From the text: as §1, §2

[2] = test system: Pectobacterium carotovorum subsp. carotovorum MI; experiment: Agar-well diffusion, bactericidal activity; settings: Pectobacterium carotovorum, 2 mM/L
From the text: as §1, §2

[3] = test system: Pseudomonas fluorescens EL-2.1; experiment: Agar-well diffusion, bactericidal activity; settings: Pseudomonas fluorescens, EL2.1, 2 mM/L
From the text: as §1, §2

[4] = test system: Xanthomonas campestris B-610; experiment: Agar-well diffusion, bactericidal activity; settings: Xanthomonas campestris
Experimental: Bacteria M. luteus, P. carotovorum subsp. carotovorum, P. atrosepticum, and P. fluorescens were grown in a meat–peptone medium (BP), and X. campestris was grown in the medium with glucose, yeast extract, and calcium carbonate (GYCa). Solid media contained Bacto agar (18 g/L); pH was adjusted to 7.2–7.4. […] For inoculum preparation, both fungal strains were initially grown on the agar GPY in Petri dishes and then transferred into the seed medium by punching out 5 mm of the agar plate culture with a self-designed cutter.
as §2

[5] = test system: five representative phytopathogens; experiment: Agar-well diffusion, bactericidal activity over the panel of phytopathogens
From the text: as §1, §2

[6] = test system: Fusarium oxysporum IBPPM 543; experiment: Mycelial radial growth inhibition; settings: Fusarium oxysporum; for inhibition of growth at 1 µM: 1 nmol/mL; for inhibition of growth at 1 µM / inhibition of growth at 5 µM / inhibition of growth at 30 µM / inhibition of growth at 40 µM: read-out: Inhibition value, I (%); for inhibition of growth at 5 µM: 5 nmol/mL; for inhibition of growth at 30 µM: 30 nmol/mL; for inhibition of growth at 40 µM: 40 nmol/mL
From the text: as §1
(§3) For the fungicidal activity analysis, radial growth (colony diameters) of the fungi on a solid medium in the absence and in the presence of the compounds 5a–e and 7a–c solutions at various concentrations were compared. The method consisted of the following: A sterile GPY agar medium (20.0 mL), which was melted and then allowed to cool to approximately 60 °C, was mixed with the precisely measured volumes of the solutions under question and poured into a sterile Petri dish (90 mm i.d.). After the solidification of GPY agar, the media were inoculated by the fungus using 10-day-old cultures of F. oxysporum or P. cactorum. The inoculation was conducted by transferring a 5-mm (i.d.) GPY-agar block covered with mycelium to the center of the Petri dish, followed by incubation in a thermostat at 27 °C. The fungicidal effect was scored by the size of the mycelium colony on a Petri dish compared to the control without fungicidal admixtures to GPY agar. Each treatment was performed in at least four replicates in two independent experiments. The observation period ended when the control Petri dish was filled with mycelium (usually after 12 days). […] The solutions of the compounds were prepared with a concentration of 2 mmol/L (stock solution). For comparison, test compounds were also commonly applied as disinfecting agents, and antibiotics were used as a positive control.

[7] = test system: Phytophthora cactorum VKM F-985; experiment: Mycelial radial growth inhibition; settings: Phytophthora cactorum; for inhibition of growth at 3 µM: 3 nmol/mL; for inhibition of growth at 3 µM / inhibition of growth at 7 µM / inhibition of growth at 20 µM / inhibition of growth / inhibition of growth at 40 µM: read-out: Inhibition value, I (%); for inhibition of growth at 7 µM: 7 nmol/mL; for inhibition of growth at 20 µM: 20 nmol/mL; for inhibition of growth: 27 nmol/mL; for inhibition of growth at 40 µM: 40 nmol/mL
From the text: as §1, §3

[8] = Table S3, read-out: Inhibition zone width (mm), not less
[9] = IBPPM543, 72 h, age of the fungus 3 days
[10] = IBPPM543, 120 h, age of the fungus 5 days
[11] = IBPPM543, 168 h, age of the fungus 7 days
[12] = IBPPM543, 216 h, age of the fungus 9 days
[13] = 120 h, age of the fungus 5 days
[14] = 168 h, age of the fungus 7 days
[15] = 216 h, age of the fungus 9 days

Cc1ccc[n+](CC(=O)N/N=C2\C(=O)N(Cc3ccccc3F)c3ccccc32)c1C [Compound 7a]
zone of inhibition at 2000 µM (Micrococcus luteus B-109; B109, 2 mM/L, average of 3 experiments, read-out: width of the inhibition zone (mm), M. luteus): 2 mm | zone of inhibition at 2000 µM (Micrococcus luteus B-109; B109, Table S3, 2 mM/L, read-out: Inhibition zone width (mm), not less): ≥ 2 mm | zone of inhibition at 2000 µM ([1]; average of 3 experiments, read-out: width of the inhibition zone (mm), P. atrosepticum): 3 mm | zone of inhibition at 2000 µM [1, 8]: ≥ 3 mm | zone of inhibition at 2000 µM ([2]; average of 3 experiments, read-out: width of the inhibition zone (mm), P. carotovorum subsp. carotovorum): 6 mm | zone of inhibition at 2000 µM [2, 8]: ≥ 6 mm | zone of inhibition at 2000 µM ([3]; average of 3 experiments, read-out: width of the inhibition zone (mm), Ps. fluorescens): 5 mm | zone of inhibition at 2000 µM [3, 8]: ≥ 5 mm | zone of inhibition at 2000 µM ([4]; B610, 2 mM/L, average of 3 experiments, read-out: width of the inhibition zone (mm), X. campestris): 5 mm | zone of inhibition at 2000 µM ([4]; B610, Table S3, 2 mM/L, read-out: Inhibition zone width (mm), not less): ≥ 5 mm | zone of inhibition at 2000 µM ([5]; 36 h, 2 mM solutions, dependent on the test system used, read-out: inhibition zone width (mm), range over the test systems): 2 to 6 mm | bactericidal activity ([5]; Table S2): moderate bactericidal activity | inhibition zone ([5]; against P. carotovorum subsp. carotovorum MI, Ps. fluorescens EL-2.1 and X. campestris B-610): 5–6 mm | inhibition of growth at 1 µM [6, 9]: 9% | inhibition of growth at 5 µM [6, 9]: 43% | inhibition of growth at 30 µM [6, 9]: 51% | inhibition of growth at 40 µM [6, 9]: 61% | EC50 ([6]; IBPPM543, 120 h, day 5, read-out: EC50, µg/mL at Day 5, F. oxysporum): 7.25 µg/mL | inhibition of growth at 1 µM [6, 10]: 4% | inhibition of growth at 5 µM [6, 10]: 44% | inhibition of growth at 30 µM [6, 10]: 59% | inhibition of growth at 40 µM [6, 10]: 65% | inhibition of growth at 1 µM [6, 11]: 8% | inhibition of growth at 5 µM [6, 11]: 41% | inhibition of growth at 30 µM [6, 11]: 56% | inhibition of growth at 40 µM [6, 11]: 69% | inhibition of growth at 1 µM [6, 12]: 0% | inhibition of growth at 5 µM [6, 12]: 33% | inhibition of growth at 30 µM [6, 12]: 55% | inhibition of growth at 40 µM [6, 12]: 64% | inhibition of growth at 3 µM ([7]; 72 h, age of the fungus 3 days): 5% | inhibition of growth at 7 µM ([7]; 72 h, age of the fungus 3 days): 17% | inhibition of growth at 20 µM ([7]; 72 h, age of the fungus 3 days): 21% | inhibition of growth ([7]; 72 h, age of the fungus 3 days): 27% | inhibition of growth at 40 µM ([7]; 72 h, age of the fungus 3 days): 42% | EC50 ([7]; 120 h, day 5, read-out: EC50, µg/mL at Day 5, P. cactorum): 22.9 µg/mL | inhibition of growth at 3 µM [7, 13]: 12% | inhibition of growth at 7 µM [7, 13]: 21% | inhibition of growth at 20 µM [7, 13]: 25% | inhibition of growth [7, 13]: 29% | inhibition of growth at 40 µM [7, 13]: 45% | inhibition of growth at 3 µM [7, 14]: 4% | inhibition of growth at 7 µM [7, 14]: 10% | inhibition of growth at 20 µM [7, 14]: 16% | inhibition of growth [7, 14]: 20% | inhibition of growth at 40 µM [7, 14]: 38% | inhibition of growth at 3 µM [7, 15]: 4% | inhibition of growth at 7 µM [7, 15]: 6% | inhibition of growth at 20 µM [7, 15]: 13% | inhibition of growth [7, 15]: 16% | inhibition of growth at 40 µM [7, 15]: 37%
